Reference: ChEMBL document CHEMBL1201862, “PubChem BioAssay data set” (2004)
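A five-concentration, 48-hour dose response in 96-well plates underlies each endpoint, interpolated linearly between surrounding concentrations. GI50 is the concentration that inhibits growth by half.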 The source made the active and inactive calls. Rule as the data show it: active = GI50 up to about 1.1 µM and inactive = higher.

Tests used:
Assay in all cases: NCI anticancer screen, dose series, 48 h
SNB-19 = tested on: SNB-19
NCI/ADR-RES = tested on: NCI/ADR-RES
MOLT-4 = tested on: MOLT-4
SF-268 = tested on: SF-268
HCT-15 = tested on: HCT-15
HCT-116 = tested on: HCT-116
HOP-62 = tested on: HOP-62
MDA-MB-231 = tested on: MDA-MB-231
NCI-H226 = tested on: NCI-H226
NCI-H23 = tested on: NCI-H23
OVCAR-8 = tested on: OVCAR-8
786-0 = tested on: 786-0
Hs-578T = tested on: Hs-578T
K562 = tested on: K562
PC-3 = tested on: PC-3
ACHN = tested on: ACHN
BT-549 = tested on: BT-549
HT-29 = tested on: HT-29
MDA-N = tested on: MDA-N

SMILES | GI50 (SNB-19) | GI50 (NCI/ADR-RES) | GI50 (MOLT-4) | GI50 (SF-268) | GI50 (HCT-15) [µM] | GI50 (HCT-116) | GI50 (HOP-62) | GI50 (MDA-MB-231) | GI50 (NCI-H226) | GI50 (NCI-H23) | GI50 (OVCAR-8) | GI50 (786-0) | GI50 (Hs-578T) | GI50 (K562) | GI50 (PC-3) | GI50 (ACHN) | GI50 (BT-549) | GI50 (HT-29) | GI50 (MDA-N)
CC(=O)Nc1ccc(S(=O)(=O)N=S(C)C)cc1 | > 100 µM (inactive) | > 100 µM (inactive) | > 100 µM (inactive) | > 100 µM (inactive) | > 100 | > 100 µM (inactive) | > 100 µM (inactive) | > 100 µM (inactive) | > 100 µM (inactive) | > 100 µM (inactive) | > 100 µM (inactive) | > 100 µM (inactive) | > 100 µM (inactive) | > 100 µM (inactive) | > 100 µM (inactive) | > 100 µM (inactive) | > 100 µM (inactive) | > 100 µM (inactive) | > 100 µM (inactive)
O=C(O)c1cccc(C(=O)O)c1[S+]([O-])Cc1ccccc1 (stereo not given) | > 100 µM (inactive) | > 100 µM (inactive) |  | > 100 µM (inactive) | > 100 | > 100 µM (inactive) | > 100 µM (inactive) | > 100 µM (inactive) | > 100 µM (inactive) | > 100 µM (inactive) | > 100 µM (inactive) | > 100 µM (inactive) | > 100 µM (inactive) | > 100 µM (inactive) | > 100 µM (inactive) | > 100 µM (inactive) | > 100 µM (inactive) | > 100 µM (inactive) | > 100 µM (inactive)
COC(=O)/C=C1/OC(c2ccccc2)=CC1=O | 17.3 µM (inactive) | 23.2 µM (inactive) | 6.38 µM (inactive) | 19.1 µM (inactive) | 15.6 | 15.9 µM (inactive) | 21.6 µM (inactive) | 17 µM (inactive) | 24.6 µM (inactive) | 17.6 µM (inactive) | 15 µM (inactive) | 14.5 µM (inactive) | 22.9 µM (inactive) | 12 µM (inactive) | 20.4 µM (inactive) | 13.5 µM (inactive) | 17.7 µM (inactive) | 18.5 µM (inactive) | 17.3 µM (inactive)
CCC1(CC)C(=O)N(C(=O)c2ccc(Cl)cc2)N(C(=O)c2ccccc2Cl)C1=O | 66.1 µM (inactive) | 28.3 µM (inactive) | 20.6 µM (inactive) | 35.4 µM (inactive) | 41 | 31.6 µM (inactive) | 46 µM (inactive) | 50.5 µM (inactive) | 16.2 µM (inactive) | 32.1 µM (inactive) | 89.9 µM (inactive) | 56.8 µM (inactive) | 43.5 µM (inactive) | 45.7 µM (inactive) | > 100 µM (inactive) | 36.1 µM (inactive) | 67.9 µM (inactive) | 10.7 µM (inactive) | 39.7 µM (inactive)
COc1nc(N)c(N=O)c(OCc2ccccc2)n1 | > 10 µM (inactive) | 6.55 µM (inactive) | 8.39 µM (inactive) | > 10 µM (inactive) | 2.5 | 9.71 µM (inactive) | > 10 µM (inactive) | 3.32 µM (inactive) | > 10 µM (inactive) | > 10 µM (inactive) | 3.52 µM (inactive) | 5.21 µM (inactive) | > 10 µM (inactive) | > 10 µM (inactive) | > 10 µM (inactive) | 7.35 µM (inactive) | 4.01 µM (inactive) | 3.38 µM (inactive) | 5.36 µM (inactive)
Cc1cc(C)c2c(=O)n(CN3CCN(c4ccccc4)CC3)sc2n1 | > 100 µM (inactive) | 24.2 µM (inactive) | 20.1 µM (inactive) | > 100 µM (inactive) | 22.5 | 17.7 µM (inactive) | 34.1 µM (inactive) | 20.4 µM (inactive) | > 100 µM (inactive) | 29.2 µM (inactive) | 35.4 µM (inactive) | 16.8 µM (inactive) | 70.1 µM (inactive) | 30 µM (inactive) | 19.4 µM (inactive) | 20.1 µM (inactive) | 63.2 µM (inactive) | 18.7 µM (inactive) | 23.7 µM (inactive)
O=C(CCCl)NN=C1NCCCN1 | > 100 µM (inactive) | > 100 µM (inactive) | > 100 µM (inactive) | > 100 µM (inactive) | > 100 | > 100 µM (inactive) | > 100 µM (inactive) | > 100 µM (inactive) | > 100 µM (inactive) | > 100 µM (inactive) | > 100 µM (inactive) | > 100 µM (inactive) | > 100 µM (inactive) | > 100 µM (inactive) | > 100 µM (inactive) | > 100 µM (inactive) | > 100 µM (inactive) | > 100 µM (inactive) | > 100 µM (inactive)
COC(=O)CCc1cc(O)c2c(c1)C(C(=O)OC)C(c1ccc(O)c(O)c1)O2 (stereo not given) | 11.1 µM (inactive) | 42.3 µM (inactive) | 5.09 µM (inactive) | 16.3 µM (inactive) | 4.36 | 7.19 µM (inactive) | 15.1 µM (inactive) | 11.7 µM (inactive) | 26.4 µM (inactive) | 26.6 µM (inactive) | 21.8 µM (inactive) | 26.1 µM (inactive) | 25.2 µM (inactive) | 2.61 µM (inactive) | 19.6 µM (inactive) | 33.7 µM (inactive) | 12.5 µM (inactive) | 27.2 µM (inactive) | 1.9 µM (inactive)
CC(C)=CCc1c(O)c(CC=C(C)C)c2oc(-c3ccc(O)cc3O)c(CC=C(C)C)c(=O)c2c1O | 12.6 µM (inactive) | 12.3 µM (inactive) | 3.33 µM (inactive) | 9.16 µM (inactive) | 5.47 | 4.97 µM (inactive) | 9.06 µM (inactive) | 12.6 µM (inactive) | 23 µM (inactive) | 5.56 µM (inactive) | 4.88 µM (inactive) | 8.91 µM (inactive) | 7.76 µM (inactive) | 4.05 µM (inactive) | 6.46 µM (inactive) | 7.62 µM (inactive) | 7.98 µM (inactive) | 7.96 µM (inactive) | 7.82 µM (inactive)
COc1ccc2cc(CNCCCCCCNCc3ccc4cc(OC)ccc4c3)ccc2c1 | 0.785 µM (active) | 1.44 µM (inactive) | 0.205 µM (active) | 0.565 µM (active) | 0.406 | 0.176 µM (active) | 1.64 µM (inactive) | 0.465 µM (active) | 1.8 µM (inactive) | 2.11 µM (inactive) | 0.531 µM (active) | 0.902 µM (active) | 1.75 µM (inactive) | 0.0897 µM (active) | 0.471 µM (active) | 1.57 µM (inactive) | 1.72 µM (inactive) | 0.186 µM (active) | 0.183 µM (active)
COC(=O)[C@]12CC[C@H]3CN(C(=O)OCc4ccccc4)[C@H]([C@H]31)[C@H](c1ccccc1)N2 | > 100 µM (inactive) | 64.6 µM (inactive) | 33 µM (inactive) | > 100 µM (inactive) | 69.3 | 65.3 µM (inactive) | > 100 µM (inactive) | 59.3 µM (inactive) | 86.7 µM (inactive) | 77.4 µM (inactive) | 78.9 µM (inactive) | > 100 µM (inactive) | > 100 µM (inactive) | 58.1 µM (inactive) | 43.2 µM (inactive) | 92 µM (inactive) | 85.5 µM (inactive) | 74.8 µM (inactive) | 57.3 µM (inactive)
O=C(O)[C@@H]1[C@H](C(=O)O)[C@H](C(=O)O)C[C@@H]1C(=O)O | > 100 µM (inactive) | > 100 µM (inactive) | > 100 µM (inactive) | > 100 µM (inactive) | > 100 | > 100 µM (inactive) | > 100 µM (inactive) | > 100 µM (inactive) | > 100 µM (inactive) | > 100 µM (inactive) | > 100 µM (inactive) | > 100 µM (inactive) | > 100 µM (inactive) | > 100 µM (inactive) | > 100 µM (inactive) | > 100 µM (inactive) | > 100 µM (inactive) | > 100 µM (inactive) | > 100 µM (inactive)
CC12Nc3c(Cl)cc(Cl)cc3N1C(=O)c1ccccc12 (stereo not given) |  | 91.8 µM (inactive) | 58.7 µM (inactive) | > 100 µM (inactive) | > 100 | > 100 µM (inactive) | > 100 µM (inactive) | > 100 µM (inactive) | 68.7 µM (inactive) | > 100 µM (inactive) | > 100 µM (inactive) | > 100 µM (inactive) | 48 µM (inactive) | > 10 µM (inactive) | > 100 µM (inactive) | > 100 µM (inactive) | 71.6 µM (inactive) | > 100 µM (inactive) | > 100 µM (inactive)
CSc1c(C#N)c(N)n(-c2ccc(C)cc2)c(=O)c1C#N | > 100 µM (inactive) | > 100 µM (inactive) | > 100 µM (inactive) | > 100 µM (inactive) | > 100 | > 100 µM (inactive) |  | > 100 µM (inactive) | 70 µM (inactive) | > 100 µM (inactive) | > 100 µM (inactive) | > 100 µM (inactive) | > 100 µM (inactive) | > 100 µM (inactive) | > 100 µM (inactive) |  | > 100 µM (inactive) | > 100 µM (inactive) | > 100 µM (inactive)
CN(C)CCCN1C(=O)N(CCCN(C)C)c2c3cc(O)ccc3nc3c([N+](=O)[O-])ccc1c23 | 10.9 µM (inactive) | 92.9 µM (inactive) |  | 10.3 µM (inactive) | 13.1 | 14.1 µM (inactive) | 17.2 µM (inactive) | 11.6 µM (inactive) | 23.2 µM (inactive) | 13 µM (inactive) | 15.8 µM (inactive) | 8.13 µM (inactive) | 21.5 µM (inactive) | 4.99 µM (inactive) | 8.24 µM (inactive) | 16.6 µM (inactive) | 17.6 µM (inactive) | 11.8 µM (inactive) | 37.3 µM (inactive)
